Assay results from PubChem BioAssay AID179 (DTP/NCI, 2004).
The source made the active and inactive calls.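 Rule for the calls: active = compounds giving half or more protection of infected cells from virus-caused growth loss, again on retest; inactive = the rest.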 Where a SMILES comes first, the peptide text is derived from it. [ ]: non-standard residue; d: D form. The star is where a group is joined. NMeAc5c = CNC1(C(=O)O)CCCC1; Boc = CC(C)(C)OC(=O)*; OBn = c1ccc(CO*)cc1

System: CEM cells HIV-1 protection, formazan growth assay
Assay: NCI AIDS Antiviral Assay
Conditions: for IC50: measured here: growth of uninfected CEM cells
In short: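 Human CEM cells, uninfected and HIV-1-infected, received five drug concentrations, and growth was read by soluble formazan assay. Compounds giving at least 50% protection were retested; reproducible 100% protection defined confirmed active.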

| SMILES | EC50 [µM] | IC50 [µM] | outcome |
| --- | --- | --- | --- |
| CCCC[C@H]1CCN2C[C@@H](O)[C@@H](O)[C@H]2[C@@H]1O | > 200 | > 200 | – |
| COc1ccc2nc3cccc([N+](=O)[O-])c3c(NCCCCCC(=O)O)c2c1 | > 2 | 0.302 | – |
| Clc1cccc(C2SCc3nc4ccccc4n32)c1Cl (stereo unspecified) | – | – | inactive |
| COc1ccc(NC(=O)Nc2onc(C)c2C)c(Cl)c1 | > 191 | 151 | – |
| N#CCCN(CCN(CCN(C(=O)Nc1ccccc1)c1ccccc1)C(=O)Nc1ccccc1)C(=O)Nc1ccccc1 | > 200 | 9.33 | – |
| COC1CC(OC2C(C)OC(OC3C(C)OC(OC4C(C)OC(O[C@H]5CC[C@@]6(C)C(=CC[C@]7(O)[C@@H]6C[C@@H](OC(C)=O)[C@@]6(C)[C@]7(O)CC[C@@]6(O)C(C)=O)C5)CC4OC)CC3OC)CC2OC)OC(C)C1O (stereo partly specified) | > 200 | > 200 | – |
| COC(=O)C1C2CC3C(OC(=O)C31)C2I (stereo unspecified) | – | – | inactive |
| COC[C@H]1C(=O)NCC(=O)N2N=CCC[C@H]2C(=O)N(O)[C@H](C)C(=O)O[C@@H](C(C)C)[C@H](NC(=O)[C@@](C)(O)[C@]2(O)CC[C@@H](CC(C)C)[C@H](C)O2)C(=O)N2NCCC[C@@H]2C(=O)N1O | > 0.151 | 0.0417 | – |
| Clc1nc(Cl)nc(Nc2ccccc2Cl)n1 | > 200 | 97.7 | – |
| COc1cccc(C(=O)CC(c2ccccc2)C(C)(C)[N+](=O)[O-])c1 (stereo unspecified) | > 200 | 95.5 | – |
| Cc1ccc(N=Nc2c(N)nn3cc4c(nc23)-c2ccccc2CC4)cc1 | > 100 | > 100 | – |
| O=c1[nH]c(NCc2ccc(Cl)cc2)nc2nc[nH]c12 | > 200 | 55 | – |
| C(=N\Nc1nnc2c(n1)[nH]c1ccccc12)/c1ccccc1 | > 200 | > 200 | – |
| NS(=O)(=O)c1ccc(NC(=O)Cc2nc3ccccc3s2)cc1 | > 195 | 14.1 | – |
| CC(/C=C/c1ccccc1)=Nc1ccccc1 | > 23.4 | > 23.4 | – |
| Fc1ccc(OCc2ccc3nc(-c4ccccc4)c(Cl)nc3c2)cc1 | > 100 | > 100 | – |
| COc1ccc(CCN2CCOCC2)cc1 | > 200 | > 200 | – |
| CCOC(=O)Nc1n[nH]nc1Cl | > 200 | > 200 | – |
| CN(C(=O)C(Cc1ccccc1)NC(=O)OC(C)(C)C)C1(C(=O)NC(Cc2ccccc2)C(=O)OCc2ccccc2)CCCC1 (stereo not drawn) (Boc-Phe-[NMeAc5c]-Phe-OBn; configuration not given here) | > 200 | 11 | – |
| Cn1c(=O)c2[nH]c(=O)c(=O)[nH]c2n(C)c1=O | > 200 | > 200 | – |
| O=C(Nc1ccc(O)cc1)C(Cl)(Cl)Cl | > 200 | 39.8 | – |
| CN1CCN(c2ncc3c(n2)sc2c(=O)n(-c4ccccc4)cnc23)CC1 | > 200 | > 200 | – |

| SMILES | EC50 [µM] | IC50 [µM] | outcome |
| --- | --- | --- | --- |
| C(#CC[P+](c1ccccc1)(c1ccccc1)c1ccccc1)C[P+](c1ccccc1)(c1ccccc1)c1ccccc1 | > 200 | 36.3 | – |
| O=C1Oc2ccccc2[C@@H]2[C@H]1[C@@H]1C(=O)Oc3ccccc3[C@@H]12 | > 46.8 | > 46.8 | – |
| Cc1nc(-n2nc(-c3ccccc3)cc2-c2ccccc2)sc1C(=O)/C=C/c1ccccc1 | > 16.2 | 8.32 | – |
| O=C1CC(c2ccccc2)n2c(nc3ccccc32)N1 (stereo unspecified) | > 151 | 67.6 | – |
| OC1CSCCCSCCSCCCSC1 | > 17.4 | > 17.4 | – |
| COC(=O)c1ccc[c]([Sb](=[O])([OH])[OH])c1 | > 200 | 91.2 | – |
| C=C1CN(S(=O)(=O)c2ccc(C)cc2)CCCN(CCCC)CCCN(S(=O)(=O)c2ccc(C)cc2)C1 | > 200 | 1.91 | – |
| CCCCCCCCCCCCCCCCCC(=O)OCC(CN(C)CCN(C)C)OC(=O)CCCCCCCCCCCCCCCCC (stereo unspecified) | – | – | inactive |
| Oc1c(NCn2nc(CCCCCCCCc3nn(CNc4ccc5ccccc5c4O)c(=S)o3)oc2=S)ccc2ccccc12 | > 200 | 35.5 | – |
| NC(=O)N/N=C/c1ccc(Cl)cc1 | > 132 | > 132 | – |
| O=C1/C(=C\c2cccc(Oc3ccccc3)c2)SC(c2ccccc2)N1c1cc(Cl)ccc1Cl (stereo unspecified) | > 200 | 9.33 | – |
| Nc1nc(N)c2nc(-c3ccccc3)c(N)nc2n1 | – | – | inactive |
| COc1ccc(-c2cc(-c3ccccc3)c(C#N)c(=O)n2C2OC(COC(C)=O)C(OC(C)=O)C(OC(C)=O)C2OC(C)=O)cc1 (stereo unspecified) | > 15.8 | > 15.8 | – |
| O=C(O)CN1C(=O)c2cccc3cccc(c23)C1=O | > 200 | > 200 | – |
| COc1cc(NC=O)c2c(c1)SC(C)C(=O)N2 (stereo unspecified) | 141 | > 200 | – |
| N#Cc1cnsc1 | – | – | inactive |
| CCn1c(=O)c(N=O)c(N)n(CC(C)O)c1=O (stereo unspecified) | > 200 | > 200 | – |
| CN(C)c1c(C2CC(O)C(CO)O2)c(=O)c1=O (stereo unspecified) | > 200 | > 200 | – |
| O=C1c2ccccc2-c2cccc3ccc(Cc4ccc5ccccc5c4)c1c23 | > 5.13 | > 5.13 | – |
| C=CCC(N)Cc1ccccc1 (stereo unspecified) | > 200 | > 200 | – |
| CC(C)(C)N1OC2(CCCCC2)n2c(=O)c3ccccc3c(=O)n2C1c1ccccc1 (stereo unspecified) | > 589 | > 589 | – |
| Cc1ccc(S(=O)(=O)Nn2c(O)c(C#N)c(-c3ccc([N+](=O)[O-])cc3)c(C#N)c2=O)cc1 | > 200 | > 200 | – |

| SMILES | EC50 [µM] | IC50 [µM] | outcome |
| --- | --- | --- | --- |
| CCOC(=O)Cc1nc2sc(C)c(-c3ccccc3)c2c(=O)[nH]1 | > 110 | > 110 | – |
| O=c1c2cc(-c3ccccc3)cnc2sn1-c1ccc(Oc2ccccc2)cc1 | 69.2 | 110 | – |
| CC1=C/C(=N\O)C(C(O)(C(F)(F)F)C(F)(F)F)C(C)(C)C1 (stereo unspecified) | > 200 | 135 | – |
| CN=C(NC(=S)N(C)C)N(C)C | – | – | inactive |
| COc1cc(/C=C2/C(=O)N(C(=O)c3ccccc3O)N=C2C)cc(OC)c1OC | > 47.9 | 0.24 | – |
| c1ccc2c(c1)[nH]c1c[n+]3c(c[n+]12)[nH]c1ccccc13 | > 200 | > 200 | – |
| NC1=NC(=O)C(CC(=O)Nc2ccc(Cl)cc2Cl)S1 (stereo unspecified) | > 794 | 372 | – |
| COc1cc(C2C(Cl)C(=O)N2NC(=O)c2ccc(N)cc2)ccc1O (stereo unspecified) | > 200 | 53.7 | – |
| N#Cc1c2ccccc2cn1-c1ccc(F)cc1 | > 200 | 79.4 | – |
| Cc1ccc(C2=C/C(=C/c3ccc(N(CCC#N)CCC#N)cc3)C(=O)O2)cc1C | > 13.2 | > 13.2 | – |
| O=C(CSc1nnc(-c2ccc(N=Cc3ccc(Cl)cc3)cc2)o1)Nc1ccc([N+](=O)[O-])cc1 | > 38 | 15.5 | – |
| C=C[C@@H](C)[C@@H](O)c1c(O)c2c(c3c(CCC)cc(=O)oc13)OC(C)(C)C=C2 | > 200 | 10.7 | – |
| COC1=CC(=O)C(=O)c2c(C)ccnc21 | – | – | inactive |
| O=C1/C(=C/c2ccccc2F)Cc2ccccc21 | > 21.9 | > 21.9 | – |
| O=C1C[C@@H]([C@H](NC(=O)OCc2ccccc2)C(=O)O)ON1 | – | – | inactive |
| S=C1Cc2c([nH]c3ccccc23)-c2ccccc2N1 | > 200 | 129 | – |
| COC(=O)c1ccccc1NC(=O)C(=O)CC(=O)c1ccccc1NC1=CC(=O)C(=O)c2ccccc21 | > 27.5 | 4.68 | – |
| C=C1CC(COc2ccc3c(C)c(C)c(=O)oc3c2C)(c2ccccc2)OC1=O (stereo unspecified) | > 200 | 0.933 | – |
| COc1cc2c(cc1OC)C(=O)Cc1ccc(OC)c(OC)c1CN(C)CC2 | > 67.6 | > 67.6 | – |
| Cc1cc2ccc(=O)oc2c2c1OC(C)(C)[C@H](OC(=O)C13CCC(C)(C(=O)O1)C3(C)C)[C@@H]2OC(=O)C12CCC(C)(C(=O)O1)C2(C)C (stereo partly specified) | 0.562 | 24 | – |
| OC[P+](CO)(CO)C12CC3CC(CC(C3)C1)C2 | > 200 | 41.7 | – |
| O=c1c(=O)c2c3c(ccc12)OCO3 | – | – | inactive |

| SMILES | EC50 [µM] | IC50 [µM] | outcome |
| --- | --- | --- | --- |
| COc1ccccc1/C=C1\CCc2ccccc2C1=O | > 27.5 | 15.5 | – |
| O=C(O)c1nc(-c2ccc(Cl)c(Cl)c2)nc2ccc(Cl)cc12 | – | – | inactive |
| O=c1ccc2ccc(O)c(O)c2o1 | > 1410 | 66.1 | – |
| Cc1cc(C#N)c(=S)n(C2OC(CO)C(O)C(O)C2O)c1C (stereo unspecified) | > 200 | > 200 | – |
| Cc1ccc(S(=O)(=O)N=C2C=C(C(C)(C)C)C(=O)C(C(C)(C)C)=C2)cc1 | > 36.3 | > 36.3 | – |
| CC12CCC(CC1=O)C2(C)CCC(N)=O (stereo unspecified) | > 200 | > 200 | – |
| O=C(O)CCCn1nnc2c(=O)[nH][nH]c(=O)c21 | > 200 | > 200 | – |
| O=C1C=CC2=[N+]([O-])C(c3ccccc3)(c3ccccc3)C(=Nc3ccccc3)C2=C1 | – | – | inactive |
| Cc1cc(S(=O)(=O)NC2=NCc3c(F)cccc3N2)c(S)cc1Cl | > 97.7 | 72.4 | – |
| Cc1ccc(S(=O)(=O)N2c3ccccc3[C@H]3CCC=C[C@H]32)cc1 | > 100 | 6.92 | – |
| O=[N+]([O-])c1ccccc1S(=O)(=O)c1ccccc1 | 18.2 | 170 | – |
| CC1(C)CC(=O)C(/C=N/c2nc(-c3cccc([N+](=O)[O-])c3)cs2)=C(O)C1 | > 200 | 8.32 | – |
| CCCC(=O)OCC1OC2OC(C)(C)OC2C2OC(C)(C)OC12 (stereo unspecified) | – | – | inactive |
| CC(Oc1cc2oc(=O)cc(-c3ccccc3)c2cc1Cl)C(=O)O (stereo unspecified) | – | – | inactive |
| O=[N+]([O-])c1nccn1CC(O)CF (stereo unspecified) | > 468 | > 468 | – |
| CC(C)CCCC(C)C1CCC2C3CC([N+](=O)[O-])=C4CC(O)CCC4(C)C3CCC12C (stereo unspecified) | > 575 | 251 | – |
| C[C@@]12C(=O)OC(=O)[C@]1(C)[C@H]1CC[C@@H]2O1 | > 347 | 4.9 | – |
| O=C1OCC2=C1C(c1ccc(Cl)cc1)c1cc3c(cc1O2)OCO3 (stereo unspecified) | > 200 | 3.98 | – |
| CSc1c(C#N)c2n(c3ccccc13)c1ccccc1[n+]2C | > 100 | 6.76 | – |
| CCN(CC)CCNc1ccc2ncn3c4c(OC)ccc(=O)c4c(O)c1c23 | > 50.1 | 0.0219 | – |
| O=C1c2cc(Cl)ccc2-n2c(noc2=O)C2CSCN12 (stereo unspecified) | > 200 | > 200 | – |
